Experiments:
Experiment in all cases: SelectScreen kinase selectivity assay
Type in all cases: biochemical
ABL2 = molecular target: T1, ABL2 (Homo sapiens, UniProt P42684)
T1 construct: purchased Thermo Fisher Scientific (SelectScreen service)
Procedure: (§1) The kinase selectivity analysis of PKHD-5 was performed using the SelectScreen kinase analysis service provided by Thermo Fisher Scientific. The experiment initially involved the preparation of a series of inhibitor solutions at varying concentrations, which were then reacted with various kinase targets under standardized conditions to calculate the percentage inhibition for each test solution. Ultimately, the IC50 values were calculated based on the concentration-inhibition curves by fitting a four-parameter logistic curve, thereby assessing the potency and selectivity of the inhibitors. The analysis results are detailed in Supplementary Table S1.

ALK = molecular target: T2, ALK (Homo sapiens, UniProt Q9UM73)
T2 construct: purchased Thermo Fisher Scientific (SelectScreen service)
Procedure: as §1

AXL = molecular target: T3, AXL (Homo sapiens, UniProt P30530)
T3 construct: purchased Thermo Fisher Scientific (SelectScreen service)
Procedure: as §1

BLK = molecular target: T4, BLK (Homo sapiens, UniProt P51451)
T4 construct: purchased Thermo Fisher Scientific (SelectScreen service)
Procedure: as §1

BMX = molecular target: T5, BMX (Homo sapiens, UniProt P51813)
T5 construct: purchased Thermo Fisher Scientific (SelectScreen service)
T5 sequence (P51813 whole entry): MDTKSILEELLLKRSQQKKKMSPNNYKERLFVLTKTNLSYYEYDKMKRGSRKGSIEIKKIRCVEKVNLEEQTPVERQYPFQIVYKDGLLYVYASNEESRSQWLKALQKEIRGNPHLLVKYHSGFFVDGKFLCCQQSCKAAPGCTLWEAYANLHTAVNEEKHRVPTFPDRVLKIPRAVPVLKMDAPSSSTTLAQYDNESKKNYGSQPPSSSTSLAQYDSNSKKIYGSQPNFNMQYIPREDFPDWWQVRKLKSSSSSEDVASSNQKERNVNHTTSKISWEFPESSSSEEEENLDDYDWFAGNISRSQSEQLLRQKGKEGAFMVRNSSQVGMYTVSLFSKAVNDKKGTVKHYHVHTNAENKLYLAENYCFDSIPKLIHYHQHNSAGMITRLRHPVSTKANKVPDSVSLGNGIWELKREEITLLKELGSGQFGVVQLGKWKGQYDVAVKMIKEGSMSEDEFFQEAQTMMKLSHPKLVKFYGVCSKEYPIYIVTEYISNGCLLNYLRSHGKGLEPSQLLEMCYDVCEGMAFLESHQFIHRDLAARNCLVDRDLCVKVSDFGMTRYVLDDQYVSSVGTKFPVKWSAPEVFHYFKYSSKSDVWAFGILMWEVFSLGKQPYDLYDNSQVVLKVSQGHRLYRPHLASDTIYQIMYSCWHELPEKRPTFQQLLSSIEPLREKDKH
Procedure: as §1

CDK1 = molecular target: T6, CDK1 (Homo sapiens, UniProt P06493)
T6 construct: purchased Thermo Fisher Scientific (SelectScreen service)
Procedure: as §1

CSF1R = molecular target: T7, CSF1R (Homo sapiens, UniProt P07333)
T7 construct: purchased Thermo Fisher Scientific (SelectScreen service)
Procedure: as §1

EPHA1 = molecular target: T8, EPHA1 (Homo sapiens, UniProt P21709)
T8 construct: purchased Thermo Fisher Scientific (SelectScreen service)
Procedure: as §1

EPHA3 = molecular target: T9, EPHA3 (Homo sapiens, UniProt P29320)
T9 construct: purchased Thermo Fisher Scientific (SelectScreen service)
Procedure: as §1

EPHA4 = molecular target: T10, EPHA4 (Homo sapiens, UniProt P54764)
T10 construct: purchased Thermo Fisher Scientific (SelectScreen service)
Procedure: as §1

EPHA5 = molecular target: T11, EPHA5 (Homo sapiens, UniProt P54756)
T11 construct: purchased Thermo Fisher Scientific (SelectScreen service)
Procedure: as §1

EPHA8 = molecular target: T12, EPHA8 (Homo sapiens, UniProt P29322)
T12 construct: purchased Thermo Fisher Scientific (SelectScreen service)
Procedure: as §1

EPHB1 = molecular target: T13, EPHB1 (Homo sapiens, UniProt P54762)
T13 construct: purchased Thermo Fisher Scientific (SelectScreen service)
Procedure: as §1

ERBB4 = molecular target: T14, ERBB4 (Homo sapiens, UniProt Q15303)
T14 construct: purchased Thermo Fisher Scientific (SelectScreen service)
Procedure: as §1

FES = molecular target: T15, FES (Homo sapiens, UniProt P07332)
T15 construct: purchased Thermo Fisher Scientific (SelectScreen service)
Procedure: as §1

FGFR1 = molecular target: T16, FGFR1 (Homo sapiens, UniProt P11362)
T16 construct: purchased Thermo Fisher Scientific (SelectScreen service)
Procedure: as §1

FGFR2 = molecular target: T17, FGFR2 (Homo sapiens, UniProt P21802)
T17 construct: purchased Thermo Fisher Scientific (SelectScreen service)
Procedure: as §1

FGFR3 = molecular target: T18, FGFR3 (Homo sapiens, UniProt P22607)
T18 construct: purchased Thermo Fisher Scientific (SelectScreen service)
Procedure: as §1

FGFR4 = molecular target: T19, FGFR4 (Homo sapiens, UniProt P22455)
T19 construct: purchased Thermo Fisher Scientific (SelectScreen service)
T19 sequence (P22455 22-802): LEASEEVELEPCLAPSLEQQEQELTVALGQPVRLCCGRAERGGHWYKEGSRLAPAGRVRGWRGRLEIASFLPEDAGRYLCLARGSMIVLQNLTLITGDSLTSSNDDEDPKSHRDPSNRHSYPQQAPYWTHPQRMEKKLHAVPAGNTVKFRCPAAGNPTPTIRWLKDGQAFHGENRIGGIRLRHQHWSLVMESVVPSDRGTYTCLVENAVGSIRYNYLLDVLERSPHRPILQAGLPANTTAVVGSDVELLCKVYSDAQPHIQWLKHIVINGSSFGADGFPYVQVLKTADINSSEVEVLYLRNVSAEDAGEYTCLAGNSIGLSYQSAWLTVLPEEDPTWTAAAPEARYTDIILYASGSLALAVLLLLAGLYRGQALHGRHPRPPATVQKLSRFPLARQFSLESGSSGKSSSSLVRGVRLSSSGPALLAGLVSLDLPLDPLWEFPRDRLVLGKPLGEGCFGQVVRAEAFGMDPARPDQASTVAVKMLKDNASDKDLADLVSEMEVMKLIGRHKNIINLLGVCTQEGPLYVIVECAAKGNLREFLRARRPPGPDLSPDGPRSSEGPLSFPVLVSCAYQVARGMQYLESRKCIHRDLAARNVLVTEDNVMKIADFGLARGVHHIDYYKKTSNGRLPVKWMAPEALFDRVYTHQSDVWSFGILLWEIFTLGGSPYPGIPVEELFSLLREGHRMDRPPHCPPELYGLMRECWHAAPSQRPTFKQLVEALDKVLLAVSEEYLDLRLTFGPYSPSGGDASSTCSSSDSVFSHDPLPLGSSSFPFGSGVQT
Procedure: as §1

FGR = molecular target: T20, FGR (Homo sapiens, UniProt P09769)
T20 construct: purchased Thermo Fisher Scientific (SelectScreen service)
Procedure: as §1

FRK = molecular target: T21, FRK (Homo sapiens, UniProt P42685)
T21 construct: purchased Thermo Fisher Scientific (SelectScreen service)
T21 sequence (P42685 whole entry): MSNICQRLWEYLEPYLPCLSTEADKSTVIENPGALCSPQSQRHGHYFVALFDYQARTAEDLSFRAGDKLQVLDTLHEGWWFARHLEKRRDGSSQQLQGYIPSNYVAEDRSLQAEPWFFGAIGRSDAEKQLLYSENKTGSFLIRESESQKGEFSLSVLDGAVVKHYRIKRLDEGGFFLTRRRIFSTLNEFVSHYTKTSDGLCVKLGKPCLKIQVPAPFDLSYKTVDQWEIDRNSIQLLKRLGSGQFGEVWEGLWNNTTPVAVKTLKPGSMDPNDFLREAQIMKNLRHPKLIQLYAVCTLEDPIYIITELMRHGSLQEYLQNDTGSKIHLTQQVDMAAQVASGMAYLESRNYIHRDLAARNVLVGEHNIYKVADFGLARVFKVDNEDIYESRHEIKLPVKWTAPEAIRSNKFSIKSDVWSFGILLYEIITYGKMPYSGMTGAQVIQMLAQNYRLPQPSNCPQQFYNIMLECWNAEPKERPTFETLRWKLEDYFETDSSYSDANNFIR
Procedure: as §1

FYN = molecular target: T22, FYN (Homo sapiens, UniProt P06241)
T22 construct: purchased Thermo Fisher Scientific (SelectScreen service)
T22 sequence (P06241 whole entry): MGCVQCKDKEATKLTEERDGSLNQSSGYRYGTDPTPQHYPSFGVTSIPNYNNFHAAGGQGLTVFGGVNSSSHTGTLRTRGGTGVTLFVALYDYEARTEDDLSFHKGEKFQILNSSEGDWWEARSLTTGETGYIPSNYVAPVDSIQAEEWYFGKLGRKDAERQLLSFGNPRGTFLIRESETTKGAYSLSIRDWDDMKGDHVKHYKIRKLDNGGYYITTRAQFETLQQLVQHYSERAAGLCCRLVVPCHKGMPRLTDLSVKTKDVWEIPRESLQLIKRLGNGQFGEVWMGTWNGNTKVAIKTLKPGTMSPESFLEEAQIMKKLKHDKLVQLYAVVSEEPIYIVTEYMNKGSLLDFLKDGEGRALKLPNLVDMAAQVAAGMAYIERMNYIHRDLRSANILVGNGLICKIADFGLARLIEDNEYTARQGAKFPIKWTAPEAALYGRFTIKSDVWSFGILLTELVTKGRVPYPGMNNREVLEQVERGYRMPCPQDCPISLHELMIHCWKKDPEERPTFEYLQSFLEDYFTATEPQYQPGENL
Procedure: as §1

HCK = molecular target: T23, HCK (Homo sapiens, UniProt P08631)
T23 construct: purchased Thermo Fisher Scientific (SelectScreen service)
Procedure: as §1

IGF1R = molecular target: T24, IGF1R (Homo sapiens, UniProt P08069)
T24 construct: purchased Thermo Fisher Scientific (SelectScreen service)
Procedure: as §1

INSR = molecular target: T25, INSR (Homo sapiens, UniProt P06213)
T25 construct: purchased Thermo Fisher Scientific (SelectScreen service)
Procedure: as §1

INSRR = molecular target: T26, INSRR (Homo sapiens, UniProt P14616)
T26 construct: purchased Thermo Fisher Scientific (SelectScreen service)
Procedure: as §1

ITK = molecular target: T27, ITK (Homo sapiens, UniProt Q08881)
T27 construct: purchased Thermo Fisher Scientific (SelectScreen service)
T27 sequence (Q08881 whole entry): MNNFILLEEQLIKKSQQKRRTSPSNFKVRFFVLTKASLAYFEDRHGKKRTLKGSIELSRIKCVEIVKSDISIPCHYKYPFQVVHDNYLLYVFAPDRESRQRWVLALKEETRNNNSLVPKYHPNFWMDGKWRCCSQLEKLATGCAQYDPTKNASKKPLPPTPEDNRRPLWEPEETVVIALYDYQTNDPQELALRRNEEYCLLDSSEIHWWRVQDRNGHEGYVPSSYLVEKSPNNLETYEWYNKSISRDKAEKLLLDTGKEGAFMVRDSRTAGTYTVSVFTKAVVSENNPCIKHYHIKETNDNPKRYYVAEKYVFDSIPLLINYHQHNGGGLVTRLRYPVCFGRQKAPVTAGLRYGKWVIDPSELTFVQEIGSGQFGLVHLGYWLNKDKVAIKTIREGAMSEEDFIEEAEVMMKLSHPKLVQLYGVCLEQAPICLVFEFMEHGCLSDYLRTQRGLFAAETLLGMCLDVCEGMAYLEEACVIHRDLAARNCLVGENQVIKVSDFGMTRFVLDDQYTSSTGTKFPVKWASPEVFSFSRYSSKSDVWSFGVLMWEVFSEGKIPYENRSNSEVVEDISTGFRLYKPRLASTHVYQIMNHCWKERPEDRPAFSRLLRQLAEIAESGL
Procedure: as §1

JAK2 = molecular target: T28, JAK2 (Homo sapiens, UniProt O60674)
T28 construct: purchased Thermo Fisher Scientific (SelectScreen service)
Procedure: as §1

KDR = molecular target: T29, KDR (Homo sapiens, UniProt P35968)
T29 construct: purchased Thermo Fisher Scientific (SelectScreen service)
Procedure: as §1

LTK = molecular target: T30, LTK (Homo sapiens, UniProt P29376)
T30 construct: purchased Thermo Fisher Scientific (SelectScreen service)
Procedure: as §1

MUSK = molecular target: T31, MUSK (Homo sapiens, UniProt O15146)
T31 construct: purchased Thermo Fisher Scientific (SelectScreen service)
Procedure: as §1

NTRK3 = molecular target: T32, NTRK3 (Homo sapiens, UniProt Q16288)
T32 construct: purchased Thermo Fisher Scientific (SelectScreen service)
T32 sequence (Q16288 32-839): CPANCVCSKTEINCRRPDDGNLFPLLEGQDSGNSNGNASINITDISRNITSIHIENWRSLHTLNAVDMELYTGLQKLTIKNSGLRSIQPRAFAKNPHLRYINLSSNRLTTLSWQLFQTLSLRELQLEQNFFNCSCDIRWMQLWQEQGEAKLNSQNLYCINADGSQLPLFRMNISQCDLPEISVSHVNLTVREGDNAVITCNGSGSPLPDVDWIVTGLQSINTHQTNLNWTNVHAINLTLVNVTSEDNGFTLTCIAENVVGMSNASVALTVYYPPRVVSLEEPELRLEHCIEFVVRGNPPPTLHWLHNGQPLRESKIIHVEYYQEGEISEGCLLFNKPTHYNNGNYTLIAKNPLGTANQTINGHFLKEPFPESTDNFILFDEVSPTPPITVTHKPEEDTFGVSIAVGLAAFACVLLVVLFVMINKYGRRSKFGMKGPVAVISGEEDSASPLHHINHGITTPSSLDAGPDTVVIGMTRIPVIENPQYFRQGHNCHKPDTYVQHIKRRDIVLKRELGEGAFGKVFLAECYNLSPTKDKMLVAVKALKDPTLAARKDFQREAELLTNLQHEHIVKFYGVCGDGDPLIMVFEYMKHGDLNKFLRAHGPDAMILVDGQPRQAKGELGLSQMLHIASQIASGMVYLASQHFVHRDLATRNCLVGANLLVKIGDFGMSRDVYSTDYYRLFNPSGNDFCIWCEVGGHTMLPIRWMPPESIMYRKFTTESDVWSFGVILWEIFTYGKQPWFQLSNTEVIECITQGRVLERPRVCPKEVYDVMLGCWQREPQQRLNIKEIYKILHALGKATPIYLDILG
Procedure: as §1

PDGFRA = molecular target: T33, PDGFRA (Homo sapiens, UniProt P16234)
T33 construct: purchased Thermo Fisher Scientific (SelectScreen service)
Procedure: as §1

PDGFRB = molecular target: T34, PDGFRB (Homo sapiens, UniProt P09619)
T34 construct: purchased Thermo Fisher Scientific (SelectScreen service)
Procedure: as §1

PIM1 = molecular target: T35, PIM1 (Homo sapiens, UniProt P11309)
T35 construct: purchased Thermo Fisher Scientific (SelectScreen service)
Procedure: as §1

PLK1 = molecular target: T36, PLK1 (Homo sapiens, UniProt P53350)
T36 construct: purchased Thermo Fisher Scientific (SelectScreen service)
Procedure: as §1

PTK2 = molecular target: T37, PTK2 (Homo sapiens, UniProt Q05397)
T37 construct: purchased Thermo Fisher Scientific (SelectScreen service)
Procedure: as §1

RAF1 = molecular target: T38, RAF1 (Homo sapiens, UniProt P04049, Y340D/Y341D)
T38 construct: purchased Thermo Fisher Scientific (SelectScreen service)
Procedure: as §1

ROS1 = molecular target: T39, ROS1 (Homo sapiens, UniProt P08922)
T39 construct: purchased Thermo Fisher Scientific (SelectScreen service)
Procedure: as §1

TYRO3 = molecular target: T40, TYRO3 (Homo sapiens, UniProt Q06418)
T40 construct: purchased Thermo Fisher Scientific (SelectScreen service)
T40 sequence (Q06418 41-890): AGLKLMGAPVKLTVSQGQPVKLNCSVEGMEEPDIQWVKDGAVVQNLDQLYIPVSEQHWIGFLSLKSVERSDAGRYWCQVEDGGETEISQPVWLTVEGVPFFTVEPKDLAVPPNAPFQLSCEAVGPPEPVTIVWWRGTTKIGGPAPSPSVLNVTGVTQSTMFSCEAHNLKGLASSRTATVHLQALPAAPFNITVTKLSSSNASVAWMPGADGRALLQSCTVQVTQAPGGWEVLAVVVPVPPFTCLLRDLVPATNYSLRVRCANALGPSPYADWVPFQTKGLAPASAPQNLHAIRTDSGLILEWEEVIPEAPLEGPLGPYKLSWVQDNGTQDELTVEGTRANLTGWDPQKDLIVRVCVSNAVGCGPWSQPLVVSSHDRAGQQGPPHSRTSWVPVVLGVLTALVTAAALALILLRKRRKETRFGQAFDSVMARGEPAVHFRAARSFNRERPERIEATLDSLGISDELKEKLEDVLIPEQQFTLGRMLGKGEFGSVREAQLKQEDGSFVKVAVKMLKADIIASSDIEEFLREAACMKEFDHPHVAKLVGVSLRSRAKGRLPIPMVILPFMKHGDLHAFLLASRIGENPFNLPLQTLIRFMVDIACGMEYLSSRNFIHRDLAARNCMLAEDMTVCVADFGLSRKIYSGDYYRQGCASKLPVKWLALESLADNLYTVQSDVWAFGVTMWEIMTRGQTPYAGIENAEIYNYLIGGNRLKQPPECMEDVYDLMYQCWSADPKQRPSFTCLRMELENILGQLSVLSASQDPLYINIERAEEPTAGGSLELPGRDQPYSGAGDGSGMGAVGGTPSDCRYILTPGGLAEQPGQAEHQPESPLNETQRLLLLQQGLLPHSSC
Procedure: as §1

YES1 = molecular target: T41, YES1 (Homo sapiens, UniProt P07947)
T41 construct: purchased Thermo Fisher Scientific (SelectScreen service)
Procedure: as §1

ZAK = molecular target: T42, ZAK (Homo sapiens, UniProt Q9NYL2)
T42 construct: purchased Thermo Fisher Scientific (SelectScreen service)
Procedure: as §1

Measured: IC50

Cc1ccc(O)c(C)c1-n1c(N)c(C(N)=O)c2cc(CCCCCC(=O)NO)c(C)nc21 [PKHD-5]
> 50 µM: all assays above

Reference: PMC11604427 (Frontiers in Pharmacology, 2024)
